Data taken from patent US10907159B2, “Methods of treating cancer by inhibition of DNA repair proteins using antisense based therapies” (SARISSA INC., priority 2015, dated 2021).

Key:
BRCA2 mRNA = assay: RT-qPCR of BRCA2 mRNA in A549 cells after OLIGO transfection; format: cell-based, human; conditions: 20 nM OLIGO, 24 hours post-transfection; FIG. 16
Experimental: Briefly, A549 cells seeded at a density of 2.0×10^5 per flask were transfected with 20 nM of OLIGO specific for each target or control OLIGO using Lipofectamine 2000 as the transfection reagent. Twenty four hours post-transfection mRNA was extracted and reverse transcribed into cDNA. RT-qPCR was performed for target mRNA levels using TaqMan reagents according to established protocols.

A549b cells = assay: cells; format: cell-based, human; conditions: for enhancement of cisplatin (words): BR1 ASO pretreatment, FIGS. 38, 50
Experimental: OLIGOs were introduced into cells with the use of Lipofectamine 2000 (LFA2K) (Invitrogen, Burlington, Ontario, Canada). OLIGOs were mixed with LFA2K at a ratio of 0.2 μg/ml per 10 nM OLIGO. The mixture was prepared at 11× the final concentration to which cells were exposed, so that 200 μL was added to 2 mL of medium in which cells were plated. After incubating at room temperature for 20 minutes, according to manufacturer's instructions, the OLIGOs were added to the cell medium. The OLIGO/LFA2K mix was then incubated (37° C.) on the cells for 4 hours, after which a second volume of medium was added. Cells were then incubated for 20 hours. Following this incubation, the OLIGO-containing medium was replaced with OLIGO-free medium.
For cells treated with the drug olaparib, for the purposes of determining whether inhibitory activity was enhanced by the OLIGO pretreatment, olaparib was added at this time, in concentrations of from 0.01 μM to 3 μM. At this point, replicate flasks from the OLIGO-treatment were used to enumerate cell content, as this varied among treatments over the initial 24-hour exposure. This was done so that the effect of treatment with olaparib could be ascertained based on the cell population that was present at the time of initiation of exposure to olaparib. Exposure to the olaparib was initiated by addition of 0.2-volume of a preparation of the drug, at 6× final concentration in growth medium, to the fresh drug-free medium on the cells (1 ml of drug into 5 ml of medium). Following a further 4-day incubation, the proliferation of the treated cells (fold-increase in cell number) was calculated as a percentage of that of control cells. Cell numbers were enumerated on an electronic particle counter (Beckman Coulter, Mississauga, ON). As indicated in Example 1, for the purpose of determining the anti-proliferative effect of antisense OLIGOs alone, the proliferation of cells treated with antisense OLIGOs was calculated as a percent of that of cells treated with an equivalent concentration of non-complementary control OLIGO (in this case OLIGO 32). However, for the purpose of determining the anti-proliferative effect of olaparib against antisense or non-complementary (control) OLIGO-treated cells, the proliferation was calculated as a percent of cells treated with the respective OLIGO.
These experiments were carried out essentially as described in Example 3, with the following changes. The drug tested was cisplatin instead of olaparib, and cisplatin was tested in concentrations ranging from 0.5 μM to 2 μM.
These experiments were carried out essentially as described in Example 3, with the following changes. The drug tested was melphalan in concentrations ranging from 2 μM to 10 μM.
These experiments were carried out essentially as described in Example 3, with the following changes. The drug tested was carboplatin at concentrations ranging from 5 μM to 40 μM.
These experiments were carried out essentially as described in Example 3, with the following changes. The drug tested was oxaliplatin was tested in concentrations ranging from 0.2 μM to 2.5 μM.
Cisplatin was added to the final concentration indicated, and as described in Example 3. Cells were incubated for 4 days, at which time cell number was counted. Proliferation was calculated as a percent of siRNA-treated, non-cisplatin-treated controls.

SKOV-3 cells = assay: Cell proliferation assay, ASO transfection and/or drug (cell counting); format: cell-based, human; conditions: FIG. 49
Experimental: FIG. 24 illustrates that BRCA2 inhibition sensitizes ovarian cancer and breast cancer cell lines to olaparib treatment. SKOV-3 (A) and CaOV3 (B) cells were transfected with control ASO (•) or BRCA2 ASO (∘) and then treated with three different concentrations of olaparib. Proliferation was determined by cell counting 96 hours post-transfection (*p<0.05). C: BRCA2 mRNA levels were measured by qPCR 24 hours following BRCA2 ASO transfection in SKOV-3, CaOV3, 211 H and H2052 cell lines.
E: SKOV-3 cells were transfected with control or BRCA2 ASO and then treated with olaparib 24 hours post transfection. Ninety-six hours post transfection, cells were counted, plated, and re-transfected with control ASO or BRCA2 ASO and re-treated with olaparib. Cell counts were performed 96 hours post transfection (*p<0.05). […]
A: BRCA2-wild type SKOV-3 cells (black bars), […] MCF-7 cells (white bars), and BRCA2-mutated CAPAN-1 cells (grey bars) were treated simultaneously but separately with BRCA2 ASO (20 nM). […] Ninety-six hours post-transfection, cells were counted and proliferation determined (% of proliferation after control ASO treatment).
C: SKOV-3, MCF-7 and CAPAN-1 cells were treated with two different concentrations of olaparib for 96 hours. After drug treatment they were counted and proliferation was determined as a percent of that of vehicle-treated cells. […]

[1] = tested on: DU145 human prostate cancer cells; conditions: BR1 pretreatment; FIG. 37
Experimental: Cells were treated for 4 hours with ASO, after which one volume of medium was added and cells were incubated for a further 20 hours. ASO-containing medium was removed and replaced with fresh medium. Cells were then incubated for 4 days and cell numbers assessed. Proliferation of BR1-treated cells was calculated as a percent of proliferation of non-targeting ASO-treated control cells. Initial cell density varied among cell lines.

[2] = tested on: EP156T primary prostate epithelial cells; assay: Veliparib after BR1 pretreatment; format: cell-based; conditions: FIG. 37
[3] = tested on: EPT1 prostate epithelial cells; assay: Veliparib after BR1 pretreatment; format: cell-based; conditions: FIG. 37
[4] = tested on: HK-2 kidney proximal tubule epithelial cells; assay: Cell proliferation assay, ASO transfection then drug (cell counting); format: cell-based, human; conditions: FIG. 52
Experimental: FIG. […] Proliferation was determined by cell counting 96 hours post-transfection (*p<0.05).
Four hours post-transfection, cells were seeded into 6 well dishes in appropriate experimental groups. […] Ninety-six hours post transfection, cells were collected and counted (Coulter Particle Counter). Proliferation was determined based on initial cell density and calculated as a percentage of ASO+vehicle treated cells.

Substance: 5′-guaucuCTTGACGTuccuua-3′ (GUAUCUCTTGACGTUCCUUA; gapmer, lower-case wings modified, type not given here) [BR1]
- effect on BRCA2 mRNA level (BRCA2 mRNA): reduction in BRCA2 mRNA
- enhanced inhibition of proliferation by olaparib (% decrease in the IC50 value) (A549b cells; A549 cells, ASO pre-incubation, FIGS. 34, 35): up to 95%
- enhancement of cisplatin (words) (A549b cells; A549 cells): enhances cisplatin
- enhancement of cisplatin (words) (A549b cells; A549 cells, listed as BR-1): enhances the antiproliferative activity of cisplatin or melphalan
- enhanced the anti-proliferative effect of olaparib (A549b cells; BR1 pretreatment, at a given concentration of olaparib, FIG. 2): over 40%
- enhancement of veliparib (A549b cells; BR1 vs ODN 32, A549 cells, FIGS. 36, 37): enhances veliparib
- effect on antiproliferative activity of cisplatin (SKOV-3 cells): enhances the antiproliferative activity of cisplatin
- enhancement of veliparib [1]: enhances veliparib
- enhancement of veliparib [2]: little or not at all
- enhancement of veliparib [3]: little or not at all
- effect on antiproliferative activity of cisplatin [4]: no effect on the antiproliferative activity of cisplatin
